Measured values published in ChEMBL document CHEMBL1150613, “New flavonol oligoglycosides and polyacylated sucroses with inhibitory effects on aldose reductase and platelet aggregation from the flowers of Prunus mume” (J Nat Prod, 2002).

Key:
[1] = biological target: Aldo-keto reductase family 1 member B1 (Rattus norvegicus, UniProt P07943); assay: Inhibition of aldose reductase in rat lens homogenates by fluorophotometer
[2] = biological target: Aldo-keto reductase family 1 member B1 (Rattus norvegicus) (UniProt P07943); assay: Inhibition of aldose reductase in rat lens homogenates at 30 uM by fluorophotometry
Platelet [3] = assay: Inhibition of thrombin-induced platelet aggregation in washed rabbit platelets at 1.0 mM treated 2 mins before thrombin challenge by aggregometer; format: functional; conditions: Oryctolagus cuniculus
Platelet [4] = assay: Inhibition of thrombin-induced platelet aggregation in washed rabbit platelets at 0.5 mM treated 2 mins before thrombin challenge by aggregometer; format: functional; conditions: Oryctolagus cuniculus
Platelet [5] = assay: Inhibition of thrombin-induced platelet aggregation in washed rabbit platelets at 0.1 mM treated 2 mins before thrombin challenge by aggregometer; format: functional; conditions: Oryctolagus cuniculus

IC50 [1] [µM]	SMILES	also measured
13	C[C@@H]1O[C@@H](OC[C@H]2O[C@@H](Oc3c(-c4ccc(O)c(O)c4)oc4cc(O)cc(O)c4c3=O)[C@H](O)[C@@H](O)[C@@H]2O)[C@H](O)[C@H](O)[C@H]1O [RUTIN]	
18	C[C@@H]1O[C@@H](O[C@H]2[C@H](Oc3c(-c4ccc(O)c(O)c4)oc4cc(O)cc(O)c4c3=O)O[C@H](CO)[C@H](O)[C@@H]2O)[C@H](O)[C@H](O)[C@H]1O	
9.8	COc1cc(-c2oc3cc(O)cc(O)c3c(=O)c2O[C@@H]2O[C@H](CO[C@@H]3O[C@@H](C)[C@H](O)[C@@H](O)[C@H]3O)[C@@H](O)[C@H](O)[C@H]2OC(C)=O)ccc1O	
18	CC(=O)O[C@H]1[C@H](Oc2c(-c3ccc(O)c(O)c3)oc3cc(O)cc(O)c3c2=O)O[C@H](CO[C@@H]2O[C@@H](C)[C@H](O)[C@@H](O)[C@H]2O)[C@@H](O)[C@@H]1O	

The next lines start with the molecule.

SMILES	IC50 [1] [µM]	also measured
C[C@@H]1O[C@@H](OC[C@H]2O[C@@H](Oc3c(-c4ccc(O)c(O)c4)oc4cc(O)cc(O)c4c3=O)[C@H](O[C@@H]3O[C@@H](C)[C@H](O)[C@@H](O)[C@H]3O)[C@@H](O)[C@H]2O)[C@H](O)[C@H](O)[C@H]1O	> 30	inhibition [2]: 40%
COc1cc(-c2oc3cc(O)cc(O)c3c(=O)c2O[C@@H]2O[C@@H](C)[C@H](O)[C@@H](O)[C@H]2O)ccc1O	19	
CC(=O)Oc1ccccc1C(=O)O [ASPIRIN]		inhibition at 1000 µM (Platelet [3]): 53.5%; inhibition at 500 µM (Platelet [4]): 39.4%; inhibition at 100 µM (Platelet [5]): 15.8%
